In brackets after ≈: the same amount, converted by molar mass.
Columns and labels:
[1] = test system: C. albicans; assay: Minimum Inhibitory Concentration (MIC) (C. albicans), CLSI M27-A2; assay type: cell-based; settings: Candida albicans; approximately 48 h at 35±1° C.; about 50% growth reduction
Method: A. Minimum Inhibitory Concentration (MIC) (C. albicans) Compounds of the present disclosure were assessed for their ability to inhibit the growth of common strains of fungus, C. albicans using a standardized procedure (CLSI M27-A2). Stock solutions of the test compounds and standards were prepared in DMSO at 1,600 μg/mL (C. albicans). Eleven, serial, one-half dilutions of compounds were prepared in 96-well plates in RPMI+MOPS. The assay concentration ranges were 8-0.001 μg/mL (C. albicans). Cell suspensions of C. albicans were prepared and added to each well at concentrations of approximately 3.7×10^3 colony-forming-units per milliliter (cfu/mL). All testing was in duplicate. The inoculated plates were incubated for approximately 48 h at 35±1° C. At the completion of incubation the wells of each plate were evaluated visually for the presence of fungal growth. […] For QC purposes C. krusei isolate ATCC 6258 (4.0×10^3 cfu/mL) was included in the VOR assay.

[2] = molecular target: CYP3A4 (Homo sapiens (Human), UniProt P08684); assay: Inhibition of Liver Cytochrome P450 Enzymes (pooled human liver microsomes), CYP3A4; assay type: in vitro ADME
Method: B. Inhibition of Liver Cytochrome P450 Enzymes
Solutions of each test compound were separately prepared at concentrations of 20000, 6000, 2000, 600, 200, and 60 μM by serial dilution with DMSO:MeCN (50:50 v/v). The individual test compound solutions were then diluted 20-fold with DMSO:MeCN:deionized water (5:5:180 v/v/v) to concentrations of 1000, 300, 100, 30, 10, and 3 μM. Mixtures of isozyme inhibitors (sulfaphenazole, tranylcypromine, and ketoconazole as specific inhibitors of isozymes 2C9, 2C19, and 3A4, respectively) were prepared containing each inhibitor at concentrations of 6000, 2000, 600, 200, 60, 20, 6, and 2 μM by serial dilution with DMSO:CH3CN (50:50 v/v). […]
Pooled human liver microsome suspension (20 mg/mL) was diluted with phosphate buffer to obtain a 5 mg/mL suspension. […] Separate stock solutions of each substrate were prepared in DMSO:MeCN (50:50 v/v), mixed, and diluted in phosphate buffer to obtain a single solution containing each substrate at five times its experimentally determined Km concentration. […]
Substrate solution and microsome suspension were combined in a 1:1 volume ratio, mixed, and distributed to reaction wells of a PCR plate. […] A portion of the supernatant was analyzed by gradient reverse-phase HPLC with detection by electrospray ionization triple quadrupole mass spectrometry in the positive ion mode. […]

[3] = test system: Septoria tritici (ATCC 26517); assay: Minimum Inhibitory Concentration (MIC) (Septoria tritici), CLSI-based microdilution; assay type: cell-based; settings: S. tritici ATCC 26517; 22° C. for seven days; 50% reduction in growth
How it was run: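 S. tritici (ATCC 26517) tested by CLSI-style broth microdilution for filamentous fungi in RPMI-1640/MOPS, 2-fold series 16–0.016 μg/mL (11 concentrations, 2% DMSO before inoculum), duplicate rows. Inoculum ~5×10^4 cfu/mL; plates incubated 7 days at 22 °C in the dark, static; growth scored on a rating scale.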

Chain of CYP3A4 (P08684 whole entry): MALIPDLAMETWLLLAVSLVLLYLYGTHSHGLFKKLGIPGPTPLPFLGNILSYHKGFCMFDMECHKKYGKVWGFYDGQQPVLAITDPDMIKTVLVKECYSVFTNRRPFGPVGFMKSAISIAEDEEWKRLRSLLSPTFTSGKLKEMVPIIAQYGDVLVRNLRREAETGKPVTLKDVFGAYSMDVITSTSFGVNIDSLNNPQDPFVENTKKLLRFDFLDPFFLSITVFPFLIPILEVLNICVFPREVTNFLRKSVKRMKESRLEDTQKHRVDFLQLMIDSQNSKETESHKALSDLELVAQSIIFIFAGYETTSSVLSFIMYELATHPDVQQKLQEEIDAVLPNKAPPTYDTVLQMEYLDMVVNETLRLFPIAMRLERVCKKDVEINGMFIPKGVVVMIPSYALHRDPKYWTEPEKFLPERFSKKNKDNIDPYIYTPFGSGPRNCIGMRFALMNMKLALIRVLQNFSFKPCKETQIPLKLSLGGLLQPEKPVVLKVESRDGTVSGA

For `OC(Cn1cnnn1)(c1ccc(F)cc1F)C(F)(F)c1ccc(-c2ccc(F)nc2)cn1` (stereo not drawn) [Compound 31, 2-(2,4-Difluorophenyl)-1,1-difluoro-1-(6′-fluoro-[3,3′-bipyridin]-6-yl)-3-(1H-tetrazol-1-yl)propan-2-ol], the MIC [1] was 0.062 µg/mL (≈ 0.138 µM), the IC50 [2] was 33 µM and the “Septoria Rating (MIC)” value [3] was “C (>1.5-4)”.

Reference: patent US9221791B2, “Metalloenzyme inhibitor compounds” (Viamet Pharmaceuticals, Inc., priority 2011, dated 2015)
